From patent publication US20240101531A1, “PYRIDINAMINE DERIVATIVES AND THEIR USE AS POTASSIUM CHANNEL MODULATORS” (Xenon Pharmaceuticals Inc., priority 2022, published 2024) come the findings set out here.

Structures can show the parent of a compound that is named as a salt.

For this experiment, the target named is human KV7.2/KV7.3 (Homo sapiens (Human), UniProt O43525+O43526). The experiment in a line: Potassium flux assay (IPG-2 AM dye). The following applies: TREX HEK 293 or HEK 293 cells expressing human KV7.2/KV7.3; arithmetic mean values. It is filed as cell-based. Summed up:
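HEK 293 or TREX HEK 293 cells stably expressing human KV7.2/KV7.3 (tetracycline-induced where needed), loaded with IPG-2 AM, then compound for 20 min at room temperature. Flux triggered by K challenge buffer (10 mM KCl, pH 7.4), read at 530/558 nm; EC50 from 16-point 2-fold series from 30 μM, normalised to DMSO and reference modulator.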

For `Clc1ccc(Nc2nccc3cc[nH]c23)cn1` [Example 14, N-(6-chloropyridin-3-yl)-1H-pyrrolo[2,3-c]pyridin-7-amine], the EC50 (as a rule, the concentration that produces a half-maximal response) fell in the range of 1 to 10 µM.
For `FC(F)C(F)(F)COc1ccc2c(Nc3ccc(Cl)nc3)nccc2c1` [Example 409, N-(6-chloropyridin-3-yl)-6-(2,2,3,3-tetrafluoropropoxy)isoquinolin-1-amine] the value was 1 to 10 µM; for `Cc1ncc(Nc2nccc3cc(OCc4cncnc4)ccc23)cn1` [Example 308, N-(2-methylpyrimidin-5-yl)-6-(pyrimidin-5-ylmethoxy)isoquinolin-1-amine], 1 to 10 µM; for `N#C[C@H]1CCC[C@@H](Oc2ccc3c(Nc4ccc(Cl)nc4)nccc3c2)C1` [Example 345, (1 S,3R)-3-((1-((6-chloropyridin-3-yl)amino)isoquinolin-6-yl)oxy)cyclohexane-1-carbonitrile], 1 to 10 µM.
Take `Clc1ccc(Nc2nccc3cc(OCc4cn[nH]c4)ccc23)cn1` [Example 334, 6-((1H-pyrazol-4-yl)methoxy)-N-(6-chloropyridin-3-yl)isoquinolin-1-amine]: the EC50 is less than 1 µM.
Regarding `CC(C)(C)OC(=O)N[C@H]1CCC[C@@H](Oc2ccc3c(Nc4cnc(Cl)nc4)nccc3c2)C1` [Example 356, tert-butyl ((1S,3R)-3-((1-((2-chloropyrimidin-5-yl)amino)isoquinolin-6-yl)oxy)cyclohexyl)carbamate], the EC50 was less than 1 µM.
With `Clc1ncc(Nc2nccc3cc(OCC4COC4)ccc23)cn1` [Example 213, N-(2-chloropyrimidin-5-yl)-6-(oxetan-3-ylmethoxy)isoquinolin-1-amine], the EC50 is less than 1 µM.
On to `COC1CN(CCOc2ccc3c(Nc4ccc(Cl)nc4)nccc3c2)C1` [Example 72, N-(6-chloropyridin-3-yl)-6-(2-(3-methoxyazetidin-1-yl)ethoxy)isoquinolin-1-amine], for which the EC50 fell in the range of 10 to 30 µM.
To `NC(=O)C1(Oc2ccc3c(Nc4cnc(Cl)nc4)nccc3c2)CC1` [Example 61, 1-((1-((2-chloropyrimidin-5-yl)amino)isoquinolin-6-yl)oxy)cyclopropane-1-carboxamide] belongs 1 to 10 µM; to `Cc1ccc(Nc2nccc3cc(OCc4c[nH]nc4C)ccc23)cn1` [Example 427, 6-((3-methyl-1H-pyrazol-4-yl)methoxy)-N-(6-methylpyridin-3-yl)isoquinolin-1-amine formate], less than 1 µM; to `C[C@]1(O)CC[C@H](Oc2ccc3c(Nc4ccc(Cl)nc4)nccc3c2)CC1` [Example 264, trans-4-((1-((6-chloropyridin-3-yl)amino)isoquinolin-6-yl)oxy)-1-methylcyclohexan-1-ol], 1 to 10 µM.
For `FC1(F)CCC(Oc2ccc3c(Nc4ccc(Cl)nc4)nccc3c2)CC1` [Example 93, N-(6-chloropyridin-3-yl)-6-((4,4-difluorocyclohexyl)oxy)isoquinolin-1-amine] the value was less than 1 µM.
For `Fc1ccc2c(Nc3ccc(Cl)nc3)nccc2c1` [Example 18, N-(6-chloropyridin-3-yl)-6-fluoroisoquinolin-1-amine formate] the value was 1 to 10 µM; for `N#CC1(COc2ccc3c(Nc4ccc(Cl)nc4)nccc3c2)CCC1` [Example 77, 1-(((1-((6-chloropyridin-3-yl)amino)isoquinolin-6-yl)oxy)methyl)cyclobutane-1-carbonitrile], less than 1 µM; for `Clc1ccc(Nc2nccc3cc(OCc4ccno4)ccc23)cn1` [Example 157, N-(6-chloropyridin-3-yl)-6-(isoxazol-5-ylmethoxy)isoquinolin-1-amine], less than 1 µM.
As to `COCCNC(=O)c1ccc2c(Nc3ccc(Cl)nc3)nccc2c1` [Example 418], the EC50 lay within 10 to 30 µM.
To `Cc1nnc(COc2ccc3c(Nc4ccc(Cl)nc4)nccc3c2)o1` [Example 63, N-(6-chloropyridin-3-yl)-6-((5-methyl-1,3,4-oxadiazol-2-yl)methoxy)isoquinolin-1-amine] belongs 1 to 10 µM.
To `CS(=O)(CC1CC1)=Nc1ccc2c(Nc3ccc(Cl)nc3)nccc2c1` (stereo not shown) [Example 269, ((1-((6-chloropyridin-3-yl)amino)isoquinolin-6-yl)imino)(cyclopropylmethyl)(methyl)-λ^6-sulfanone] belongs 1 to 10 µM; to `FC1(F)CC(Oc2ccc3c(Nc4ccc(Cl)nc4)nccc3c2)C1` [Example 412, N-(6-chloropyridin-3-yl)-6-(3,3-difluorocyclobutoxy)isoquinolin-1-amine], 1 to 10 µM.
In the case of `Cc1cnc(Nc2ccc(Cl)nc2)c2[nH]ccc12` [Example 35, N-(6-chloropyridin-3-yl)-4-methyl-1H-pyrrolo[2,3-c]pyridin-7-amine], the EC50 was in the range of 1 to 10 µM.
As for `FC(F)(F)OCCOc1ccc2c(Nc3ccc(Cl)nc3)nccc2c1` [Example 184, N-(6-chloropyridin-3-yl)-6-(2-(trifluoromethoxy)ethoxy)isoquinolin-1-amine], the EC50 was in the range of 1 to 10 µM.
With `O=S1(=O)CC[C@H](Oc2ccc3c(Nc4ccc(Cl)nc4)nccc3c2)C1` [Example 262, (S)-3-((1-((6-chloropyridin-3-yl)amino)isoquinolin-6-yl)oxy)tetrahydrothiophene 1,1-dioxide], the EC50 lay in the range of 1 to 10 µM.
Turning to `Clc1ncc(Nc2nccc3cc(OC[C@H]4COCCO4)ccc23)cn1` [Example 382, (R)-6-((1,4-dioxan-2-yl)methoxy)-N-(2-chloropyrimidin-5-yl)isoquinolin-1-amine], the EC50 is less than 1 µM.
For `NC(COc1ccc2c(Nc3ccc(Cl)nc3)nccc2c1)C(F)(F)F` (stereo not shown) [Example 226, 6-(2-amino-3,3,3-trifluoropropoxy)-N-(6-chloropyridin-3-yl)isoquinolin-1-amine] the value was 1 to 10 µM; for `OC(COc1ccc2c(Nc3ccc(Cl)nc3)nccc2c1)C(F)(F)F` (stereo not shown) [Example 240, 3-((1-((6-chloropyridin-3-yl)amino)isoquinolin-6-yl)oxy)-1,1,1-trifluoropropan-2-ol], 1 to 10 µM; for `CC(F)(F)C1(COc2ccc3c(Nc4cnc(Cl)nc4)nccc3c2)COC1` [Example 355, N-(2-chloropyrimidin-5-yl)-6-((3-(1,1-difluoroethyl)oxetan-3-yl)methoxy)isoquinolin-1-amine], less than 1 µM.
To `COc1cnc2c(Nc3ccc(Cl)nc3)nccc2c1` [Example 399, N-(6-chloropyridin-3-yl)-3-methoxy-1,7-naphthyridin-8-amine] belongs 1 to 10 µM.
For `Fc1ccc2c(Nc3cnc(Cl)nc3)nccc2c1` [Example 23, N-(2-chloropyrimidin-5-yl)-6-fluoroisoquinolin-1-amine] the value was 1 to 10 µM; for `Cc1ncc(Nc2nccc3cc(OCc4ccon4)ccc23)cn1` [Example 222, 6-(isoxazol-3-ylmethoxy)-N-(2-methylpyrimidin-5-yl)isoquinolin-1-amine], 1 to 10 µM; for `C[C@](O)(COc1ccc2c(Nc3ccc(Cl)nc3)nccc2c1)C(F)(F)F` [Example 225, (S)-3-((1-((6-chloropyridin-3-yl)amino)isoquinolin-6-yl)oxy)-1,1,1-trifluoro-2-methylpropan-2-ol], 1 to 10 µM.
Turning to `Clc1ccc(Nc2nccc3cc(OCc4nccs4)ccc23)cn1` [Example 212, N-(6-chloropyridin-3-yl)-6-(thiazol-2-ylmethoxy)isoquinolin-1-amine], the EC50 was 1 to 10 µM.
As to `COCC1(COc2ccc3c(Nc4ccc(Cl)nc4)nccc3c2)COC1` [Example 306, N-(6-chloropyridin-3-yl)-6-((3-(methoxymethyl)oxetan-3-yl)methoxy)isoquinolin-1-amine], the EC50 is less than 1 µM.
For `CC1(COc2cnc3c(Nc4ccc(Cl)nc4)nccc3c2)COC1` [Example 259, N-(6-chloropyridin-3-yl)-3-((3-methyloxetan-3-yl)methoxy)-1,7-naphthyridin-8-amine] the value was 1 to 10 µM.
To `CC(=O)N1CCC[C@H](Oc2ccc3c(Nc4ccc(Cl)nc4)nccc3c2)C1` [Example 122, (S)-1-(3-((1-((6-chloropyridin-3-yl)amino)isoquinolin-6-yl)oxy)piperidin-1-yl)ethan-1-one] belongs 1 to 10 µM; to `Clc1ccc(Nc2nccc3cc(OC4CC5CCC(C4)N5Cc4ccccc4)ccc23)cn1` (stereo not shown) [Example 97, 6-((8-benzyl-8-azabicyclo[3.2.1]octan-3-yl)oxy)-N-(6-chloropyridin-3-yl)isoquinolin-1-amine], 10 to 30 µM; to `CO[C@@H]1CCC[C@H](Oc2ccc3c(Nc4cnc(Cl)nc4)nccc3c2)C1` (racemic) [Example 360, cis-N-(2-chloropyrimidin-5-yl)-6-(((1S,3R)-3-methoxycyclohexyl)oxy)isoquinolin-1-amine], less than 1 µM.
To `OC1CC2(C1)CC(Oc1ccc3c(Nc4ccc(Cl)nc4)nccc3c1)C2` (stereo not shown) [Example 153, 6-((1-((6-chloropyridin-3-yl)amino)isoquinolin-6-yl)oxy)spiro[3.3]heptan-2-ol] belongs less than 1 µM; to `Clc1ccc(Nc2nccc3cc(OC[C@H]4CCCN4Cc4ccccc4)ccc23)cn1` [Example 280, (R)-6-((1-benzylpyrrolidin-2-yl)methoxy)-N-(6-chloropyridin-3-yl)isoquinolin-1-amine], 1 to 10 µM.
Consider `OCc1ncc(Nc2nccc3cc(OCC4(F)CC4)ccc23)cn1` [Example 129, (5-((6-((1-fluorocyclopropyl)methoxy)isoquinolin-1-yl)amino)pyrimidin-2-yl)methanol], for which the EC50 lay in the range of 1 to 10 µM.
Regarding `O[C@@H]1CCCC[C@H]1Oc1ccc2c(Nc3ccc(Cl)nc3)nccc2c1` (relative stereo) [Example 143, trans-2-((1-((6-chloropyridin-3-yl)amino)isoquinolin-6-yl)oxy)cyclohexan-1-ol], the EC50 is less than 1 µM.
